Legend:
NLRP3 inflammasome = target: T1, NLRP3 inflammasome (Homo sapiens, UniProt Q96P20); test: NLRP3 inflammasome activation in LPS-primed, nigericin-activated THP1 macrophages, IL-1β AlphaLISA; type: cell-based; conditions: PMA-differentiated, 1 hr compound, Nigericin 6.7 uM 3 hrs, IL-1β in supernatant
T1 construct: host or cells: THP1 human acute monocytic leukemia cells, PMA-differentiated, LPS-primed
Method: (§1) NLRP3 Inflammasome Activation and Cell Viability Assessment in THP1 Macrophages
(§2) THP1—Human acute monocytic leukemia cells were cultured (ATCC, cat #TIB-202) in Gibco RPMI-1640 medium (ThermoFisher cat #72400054) supplemented with 10% Heat Inactivated FBS at density between 3-8×10^5 viable cells/mi. The cells were then subcultured when the cell concentration reached 8×10^5 cells/mL (every 2-3 days).
(§3) The parameter wells were filled with 50 ul PBS and incubated at 37° C., 5% CO2 for 48 hrs.
(§4) After 48 hrs incubation, the PMA containing media was removed, and changed for 40 ul/well of fresh DMEM, 10% FBS, 1× GlutaMax and incubated at 37° C., 5% CO2 for 24 hrs.
(§5) The following day the cells were primed with LPS (E. coli) (Sigma, cat #L3129) […] in DMEM, 10% FBS, 1× GlutaMax for 3 hrs at 37° C., 5% CO2.
(§6) Following the LPS priming step, the cells were treated with compounds at 10 uM top final concentration, 1:4 dilution, 8 times: (10 uM, 2.5 uM, 0.625 uM, 0.156 uM, 0.039 uM, 0.0097 uM, 0.0024 uM, 0.0006 uM). DMSO was used as a vehicle control, and MCC950 (InvivoGen, cat #inh-mcc) was used at 1 uM as a positive control, and incubated for 1 hrs at 37° C., 5% CO2.
(§7) Following the 1 hr compound incubation, the NLRP3 inflammasome activation step was conducted by treating cells with Nigericin (InvivoGen, cat #tlrl-nig) at 6.7 uM final concentration for 3 hrs at 37° C., 5% CO2.
(§8) Thereafter, 30 ul samples of cells' supernatants were collected for cytokine analysis which was conducted on Hu IL-1β AlphaLISA (Perkin Elmer, cat #AL220C) and Hu IL-6 AlphaLISA (Perkin Elmer, cat #AL220C). The cells' viability was assessed by performing CellTiter-Glo Luminescent Assay (Promega, cat #G7572) according to the manufacturer's protocol.

IL-6 = IL-6 in supernatants of LPS-primed, nigericin-treated THP1 macrophages, Hu IL-6 AlphaLISA; type: cell-based; conditions: Homo sapiens, THP-1, PMA-differentiated, 1 hr compound, Nigericin 6.7 uM 3 hrs, IL-6 in supernatant
Method: as §1, §2, §3, §4, §5, §6, §7, §8

T1 sequence (Q96P20 whole entry): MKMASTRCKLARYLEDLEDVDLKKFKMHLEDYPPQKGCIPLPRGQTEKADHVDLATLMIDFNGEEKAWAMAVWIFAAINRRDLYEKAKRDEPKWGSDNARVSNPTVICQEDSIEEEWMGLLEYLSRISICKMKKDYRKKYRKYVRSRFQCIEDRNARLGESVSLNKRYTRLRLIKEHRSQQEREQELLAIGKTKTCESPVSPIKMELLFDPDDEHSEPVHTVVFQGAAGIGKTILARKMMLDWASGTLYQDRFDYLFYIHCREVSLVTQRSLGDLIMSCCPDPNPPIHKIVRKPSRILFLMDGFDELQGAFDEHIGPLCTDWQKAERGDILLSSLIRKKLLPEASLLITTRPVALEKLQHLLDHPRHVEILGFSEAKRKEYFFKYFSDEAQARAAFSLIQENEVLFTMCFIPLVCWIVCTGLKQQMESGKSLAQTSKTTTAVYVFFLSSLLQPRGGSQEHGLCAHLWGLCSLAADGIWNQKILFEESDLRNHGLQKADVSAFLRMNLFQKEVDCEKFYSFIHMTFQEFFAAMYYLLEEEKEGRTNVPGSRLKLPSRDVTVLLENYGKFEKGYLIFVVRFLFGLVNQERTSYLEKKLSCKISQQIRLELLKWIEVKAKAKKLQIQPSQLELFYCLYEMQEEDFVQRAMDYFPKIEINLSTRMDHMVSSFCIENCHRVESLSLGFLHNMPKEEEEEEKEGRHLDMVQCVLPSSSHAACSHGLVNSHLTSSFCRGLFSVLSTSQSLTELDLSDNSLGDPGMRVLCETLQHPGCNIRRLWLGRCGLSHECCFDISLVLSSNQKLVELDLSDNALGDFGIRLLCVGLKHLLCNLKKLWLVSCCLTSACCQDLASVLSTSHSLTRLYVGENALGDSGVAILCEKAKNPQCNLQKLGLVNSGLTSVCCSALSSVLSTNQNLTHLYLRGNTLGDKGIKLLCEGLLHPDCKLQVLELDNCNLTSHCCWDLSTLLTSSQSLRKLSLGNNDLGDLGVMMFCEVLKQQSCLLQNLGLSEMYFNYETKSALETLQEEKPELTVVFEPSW

Structure (SMILES) | IC50 (NLRP3 inflammasome) [nM] | IC50 (IL-6) [nM]
CN1CCC[C@@H](N(C)c2nnc(-c3ccc(C(F)(F)F)cc3)c3ncn(C)c23)C1 [Compound 105] | ≥ 10000 | ≥ 10000
CN1CCC[C@@H](N(C)c2nnc(-c3ccc(C(F)(F)F)cc3)c3c2cnn3C)C1 [Compound 106] | ≥ 10000 | ≥ 10000
CN1CCC[C@@H](N(C)c2nnc(-c3ccc(F)cc3O)c3ccoc23)C1 [Compound 107] | 100 to 500 | ≥ 10000
CN1CCC[C@@H](Nc2nnc(-c3ncc(C#N)cc3O)c3cnn(C)c23)C1 [Compound 111] | 100 to 500 | ≥ 10000
CN1CCC[C@@H](Nc2nnc(-c3ccc(C#N)cc3C(F)F)c3cnn(C)c23)C1 [Compound 117] | 100 to 500 | ≥ 10000
CN1CCC[C@@H](Nc2nnc(-c3ccc(Cl)cc3C(F)F)c3ccn(C)c23)C1 [Compound 121] | 10 to 100 | ≥ 10000
CN1CCC[C@@H](Nc2nnc(-c3ccc(C#N)cc3Cl)c3ccn(C)c23)C1 [Compound 124] | 100 to 500 | ≥ 10000
Cc1cc(C#N)cc(C)c1-c1nnc(N[C@@H]2CCCN(C)C2)c2c1ccn2C [Compound 126] | ≥ 10000 | ≥ 10000
CN1CCC[C@@H](Nc2nnc(-c3ccc(C(F)(F)F)cn3)c3ccn(C)c23)C1 [Compound 129] | 100 to 500 | ≥ 10000
CN1CCC[C@@H](Nc2nnc(-c3ncc(C(F)(F)F)cc3Cl)c3ccn(C)c23)C1 [Compound 131] | 10 to 100 | ≥ 10000
Cc1cc(C#N)cnc1-c1nnc(N[C@@H]2CCCN(C)C2)c2c1ccn2C [Compound 132] | 1000 to 10000 | ≥ 10000
CN1CCC[C@@H](Nc2nnc(-c3ccc(C(F)(F)F)cn3)c3cnn(C)c23)C1 [Compound 136] | 100 to 500 | 1000 to 5000
Cc1cc(C(F)(F)F)cnc1-c1nnc(N[C@@H]2CCCN(C)C2)c2c1cnn2C [Compound 137] | 10 to 100 | ≥ 10000
Cc1cc(C#N)cnc1-c1nnc(N[C@@H]2CCCN(C)C2)c2c1cnn2C [Compound 139] | ≥ 10000 | ≥ 10000
CN1C[C@H](Nc2nnc(-c3ccc(C#N)cc3O)c3ccn(C)c23)CC(F)(F)C1 [Compound 145] | ≥ 10000 | ≥ 10000
Cn1ccc2c(-c3ccc(C#N)cc3O)nnc(N[C@@H]3CCCN(C4CC4)C3)c21 [Compound 146] | 10 to 100 | ≥ 10000

Next, values leading:

IC50 (NLRP3 inflammasome) [nM] | IC50 (IL-6) [nM] | Structure (SMILES)
10 to 100 | ≥ 10000 | Cn1ncc2c(-c3ccc(C(F)(F)F)cc3)nnc(N[C@@H]3CCCN(CC4CC4)C3)c21 [Compound 108]
10 to 100 | ≥ 10000 | Cn1ncc2c(-c3ccc(C(F)(F)F)cc3)nnc(N[C@@H]3CCCN(C4CC4)C3)c21 [Compound 109]
10 to 100 | ≥ 10000 | Cc1cc(C(F)(F)F)ccc1-c1nnc(N[C@@H]2CCCN(C)C2)c2c1cnn2C [Compound 110]
10 to 100 | ≥ 10000 | Cc1cc(C#N)ccc1-c1nnc(N[C@@H]2CCCN(C)C2)c2c1cnn2C [Compound 112]
< 10 | ≥ 10000 | Cc1cc(C#N)cc(O)c1-c1nnc(N[C@@H]2CCCN(C)C2)c2c1cnn2C [Compound 115]
10 to 100 | ≥ 10000 | CN1CCC[C@@H](Nc2nnc(-c3ccc(Cl)cc3C(F)F)c3cnn(C)c23)C1 [Compound 118]
10 to 100 | ≥ 10000 | CN1CCC[C@@H](Nc2nnc(-c3ccc(C(F)(F)F)cc3C(F)F)c3cnn(C)c23)C1 [Compound 119]
< 10 | 1000 to 5000 | Cc1cc(C(F)(F)F)ccc1-c1nnc(N[C@@H]2CCCN(C)C2)c2c1ccn2C [Compound 123]
< 10 | 5000 to 10000 | Cc1cc(C#N)cc(O)c1-c1nnc(N[C@@H]2CCCN(C)C2)c2c1ccn2C [Compound 127]
< 10 | ≤ 1000 | Cc1cc(C(F)(F)F)cc(O)c1-c1nnc(N[C@@H]2CCCN(C)C2)c2c1ccn2C [Compound 143]
< 10 | ≥ 10000 | CN1CCC[C@@H](Nc2nnc(-c3ccc(C#N)cc3O)c3cnsc23)C1 [Compound 144]

Reference: patent publication US20260015357A1, “MODULATORS OF NLRP3 INFLAMMASOME AND RELATED PRODUCTS AND METHODS” (Neumora Therapeutics, Inc., priority 2022, published 2026)
